Data from PubChem BioAssay (NCI).
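Exposure lasted 48 hours, with cells grown in 96-well plates and compounds tested at five concentrations. TGI: concentration producing complete growth inhibition.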

Tests used:
Test in all cases: DTP human tumour cell line panel, 48 h
TK-10 renal = tested on: TK-10 renal
HCC-2998 colon = tested on: HCC-2998 colon
NCI-H226 lung = tested on: NCI-H226 lung
RXF 393 renal = tested on: RXF 393 renal
COLO 205 colon = tested on: COLO 205 colon
K-562 leukemia = tested on: K-562 leukemia
HOP-92 NSCLC = tested on: HOP-92 NSCLC
SR leukemia = tested on: SR leukemia
A549 NSCLC = tested on: A549 NSCLC
A498 renal = tested on: A498 renal
HS 578T breast = tested on: HS 578T breast
ACHN renal = tested on: ACHN renal
NCI-H460 lung = tested on: NCI-H460 lung
MCF7 breast = tested on: MCF7 breast
SF-268 CNS = tested on: SF-268 CNS
SK-MEL-2 melanoma = tested on: SK-MEL-2 melanoma
SK-MEL-28 melanoma = tested on: SK-MEL-28 melanoma
EKVX NSCLC = tested on: EKVX NSCLC
HT29 colon = tested on: HT29 colon
NCI-H522 lung = tested on: NCI-H522 lung
MOLT-4 leukemia = tested on: MOLT-4 leukemia
PC-3 prostate = tested on: PC-3 prostate
OVCAR-8 ovarian = tested on: OVCAR-8 ovarian
NCI/ADR-RES ovarian = tested on: NCI/ADR-RES ovarian
OVCAR-3 ovarian = tested on: OVCAR-3 ovarian
HCT-15 colon = tested on: HCT-15 colon
IGROV1 ovarian = tested on: IGROV1 ovarian
OVCAR-4 ovarian = tested on: OVCAR-4 ovarian
SNB-75 CNS = tested on: SNB-75 CNS
UACC-257 melanoma = tested on: UACC-257 melanoma
HOP-62 NSCLC = tested on: HOP-62 NSCLC
SK-OV-3 ovarian = tested on: SK-OV-3 ovarian
UO-31 renal = tested on: UO-31 renal
U251 CNS = tested on: U251 CNS
HCT-116 colon = tested on: HCT-116 colon
T-47D breast = tested on: T-47D breast
KM12 colon = tested on: KM12 colon
SF-295 CNS = tested on: SF-295 CNS
MDA-N = tested on: MDA-N
CCRF-CEM leukemia = tested on: CCRF-CEM leukemia
MDA-MB-435 = tested on: MDA-MB-435
LOX IMVI melanoma = tested on: LOX IMVI melanoma
UACC-62 melanoma = tested on: UACC-62 melanoma
RPMI-8226 leukemia = tested on: RPMI-8226 leukemia
OVCAR-5 ovarian = tested on: OVCAR-5 ovarian
NCI-H23 lung = tested on: NCI-H23 lung
HL-60(TB) leukemia = tested on: HL-60(TB) leukemia
BT-549 breast = tested on: BT-549 breast
SK-MEL-5 melanoma = tested on: SK-MEL-5 melanoma
SNB-19 CNS = tested on: SNB-19 CNS
MALME-3M melanoma = tested on: MALME-3M melanoma
SN12C renal = tested on: SN12C renal
SF-539 CNS = tested on: SF-539 CNS
DU-145 prostate = tested on: DU-145 prostate
CAKI-1 renal = tested on: CAKI-1 renal
M14 melanoma = tested on: M14 melanoma
MDA-MB-231 breast = tested on: MDA-MB-231 breast
SW-620 colon = tested on: SW-620 colon
786-0 renal = tested on: 786-0 renal
KM20L2 colon = tested on: KM20L2 colon
XF 498 CNS = tested on: XF 498 CNS
M19-MEL melanoma = tested on: M19-MEL melanoma
SNB-78 CNS = tested on: SNB-78 CNS
LXFL 529 NSCLC = tested on: LXFL 529 NSCLC

Measured: TGI

CCCCOP(C)(=O)C(NC(=O)OCC)(C(F)(F)F)C(F)(F)F (stereo not given)
not listed: 786-0 renal | KM20L2 colon | XF 498 CNS | M19-MEL melanoma | SNB-78 CNS | LXFL 529 NSCLC
> 100 µM: all other assays above

CC(=O)c1ccc(NC(=O)C(=O)C(C#N)CC(C)(C)C=O)cc1 (stereo not given)
not listed: RXF 393 renal | HS 578T breast | MCF7 breast | PC-3 prostate | NCI/ADR-RES ovarian | SNB-75 CNS | T-47D breast | MDA-N | MDA-MB-435 | BT-549 breast | DU-145 prostate | MDA-MB-231 breast
> 100 µM: all other assays above
